Laboratory results taken from article PMC7912796, “Design, Synthesis, Anticancer Activity, and Solid Lipid Nanoparticle Formulation of Indole- and Benzimidazole-Based Compounds as Pro-Apoptotic Agents Targeting Bcl-2 Protein” (Pharmaceuticals, 2021).

Test system: MDA-MB-231/breast cancer cells
Experiment: SRB cytotoxicity assay
Format: cell-based
Conditions: Homo sapiens; MDA-MB-231, 72 h exposure
Procedure: MDA-MB-231: Breast Cancer cell line was obtained from Nawah^TM Scientific Inc., (Cairo, Egypt). Cells were maintained within DMEM provided by 100 units/mL of penicillin, […], and 10% of heat-inactivated FBS within 5% (v/v) CO2 humidified atmosphere (37 °C). The validity of cell line was evaluated adopting the previously reported approach. Briefly, an accurate volume (100 μL) of cell line suspension (5 × 10^3 cells) was placed in 96-well plates and incubated for 24 h within complete media. Cell line suspensions were then treated with another 100 μL media spiked with various drug concentrations (0.01, 0.1, 1, 10, 100 μM/mL) and kept for 72 h. Then the media were replaced with 150 μL of 10% trichloroacetic acid (TCA) for fixing cells through subsequent 1 h incubation at 4 °C [74]. Following incubation, TCA was removed, and cells were washed via distilled water 5 times. Aliquots of 70 μL SRB solution (0.4% w/v; Cat.# S1402; Sigma-Aldrich^TM, Taufkirchen, Germany) were added and cell were then incubated in dark for 10 min at 25 °C. Plates were subjected to triplicate washing via 1% acetic acid and then permitted to be air-dried overnight. Protein-bound SRB stain was extracted by addition of tris base (150 μL, 10 mM) and the absorbance was measured at 540 nm using FLUOstar-Omega® microplate reader (BMG-Labtech^TM GmbH, Ortenberg, Germany).

CCCc1ccc(-c2nn(-c3ccccc3)cc2C=NNC(=O)c2cc3ccccc3[nH]2)cc1 [Compound 8b, N′-((1-phenyl-3-(4-propylphenyl)-1H-pyrazol-4-yl)methylene)-1H-indole-2-carbohydrazide]
IC50: 12.4 ± 0.5 µM
